The text below walks through data of patent publication US20230330254A1 (Regeneron Pharmaceuticals, Inc., priority 2022, published 2023).

For test [1], the target named is T1, human GLP1R (Homo sapiens, UniProt P43220). Put plainly: Luciferase reporter assay, HEK293/CRE-Luc/hGLP1R cells (Example 11). On the set-up: engineered to express full-length human GLP1R, cynomolgus GLP1R; expressed in transfected cells; host or cells: HEK293/CRE-Luc. The note with it: Table 11; Experiment A. The test is classed as cell-based.
T1 sequence (P43220 24-463): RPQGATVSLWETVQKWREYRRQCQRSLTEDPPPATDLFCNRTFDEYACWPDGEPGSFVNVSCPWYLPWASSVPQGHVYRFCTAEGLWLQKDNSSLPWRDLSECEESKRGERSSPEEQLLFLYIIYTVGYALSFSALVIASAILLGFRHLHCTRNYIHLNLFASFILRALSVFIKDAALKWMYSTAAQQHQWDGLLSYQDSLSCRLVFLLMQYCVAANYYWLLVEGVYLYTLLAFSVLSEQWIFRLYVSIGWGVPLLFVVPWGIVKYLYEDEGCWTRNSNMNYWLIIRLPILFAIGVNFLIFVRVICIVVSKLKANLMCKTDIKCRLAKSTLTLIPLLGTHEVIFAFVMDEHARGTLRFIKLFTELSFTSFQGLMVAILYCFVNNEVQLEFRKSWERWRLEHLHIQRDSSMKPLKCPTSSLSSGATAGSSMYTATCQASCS
Test [2] has as its target T1, human GLP1R. In words: Human GLP1R cAMP accumulation assay. The test is classed as cell-based. Also noted: HEK293 cells over-expressing full length human GLP-1R were utilized; expressed in transfected cells; host or cells: HEK293 (HEK293/hGLP1R). The method, boiled down:
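cAMP accumulation measured after 30 min at 23° C, with 500 μM IBMX in HEPES-buffered HBSS plus 0.1% BSA, in HEK293 cells expressing full-length hGLP-1R. Levels read by D2-cAMP/antibody immunoassay via standard curve, scaled between low and high controls. EC50 fitted four-parameter over a 10-point curve.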
A general note: cAMP levels reflect the balance of adenylyl cyclase and phosphodiesterase activity.

A further test has as its system HEK293/CRE-Luc cells. In words: Luciferase reporter assay, HEK293/CRE-Luc cells without GLP1R (Example 17). It is filed as cell-based, human. The method, boiled down:
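HEK293 cells carrying a CRE-driven firefly luciferase reporter were exposed to 3-fold serial dilutions of payloads or linker-payloads (12 points, 0.2% DMSO final) for 4–6 h, then luminescence was read. EC50 came from a four-parameter logistic fit; S/N is top RLU over untreated wells, and relative potency and S/N are referenced to M2361.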
(In general: A reporter such as luciferase makes a cellular process visible.)

Test [3] addresses T2, human gastric inhibitory polypeptide receptor (GIPR) (Homo sapiens, UniProt P48546).
T2 sequence (P48546 22-466): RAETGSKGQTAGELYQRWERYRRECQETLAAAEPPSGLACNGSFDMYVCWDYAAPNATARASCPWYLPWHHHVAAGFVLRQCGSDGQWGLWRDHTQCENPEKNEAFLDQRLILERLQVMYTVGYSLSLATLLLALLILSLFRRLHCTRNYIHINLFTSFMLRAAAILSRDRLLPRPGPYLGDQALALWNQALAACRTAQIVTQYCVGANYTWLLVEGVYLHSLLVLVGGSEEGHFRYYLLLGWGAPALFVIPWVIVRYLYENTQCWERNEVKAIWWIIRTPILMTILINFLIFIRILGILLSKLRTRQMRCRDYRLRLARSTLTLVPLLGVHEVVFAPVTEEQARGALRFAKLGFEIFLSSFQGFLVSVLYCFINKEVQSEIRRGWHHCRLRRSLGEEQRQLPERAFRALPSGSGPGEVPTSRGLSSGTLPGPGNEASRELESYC
Put plainly: Luciferase reporter assay, HEK293/CRE-Luc/hGIPR (Example 17). It is filed as cell-based. Also noted: expressed in transfected cells; host or cells: HEK293/CRE-Luc. The settings on record: Table 28; CRE-dependent luciferase reporter activity; read-out: HEK293/CRE-Luc/hGlPR EC50. An excerpt:
To test the activity of GLP1R agonist payloads, GLP1R agonist linker-payloads (LPs), and anti-GLP1R antibody tethered drug conjugates (ATDCs) of the invention, a cell-based cAMP responsive luciferase reporter assay was developed. To generate the assay cell line, the firefly luciferase gene was placed under the control of a cAMP response element (CRE) located upstream of a minimal promoter and transfected into HEK293 cells and referred to herein as HEK293/CRE-Luc cells.
Three-fold serial dilutions of free payloads or LPs were prepared in 100% DMSO, transferred to fresh assay media, and added to the cells at a final constant DMSO concentration of 0.2%. The last well in the plate served as a blank control containing only the assay media and 0.2% DMSO (untreated well) and was plotted as a continuation of the 3-fold serial dilution. Four to six hours later, luciferase activity was determined after the addition of One-Glo™ reagent (Promega, Cat #E6130) to each well. Relative light units (RLUs) were measured on an Envision luminometer (PerkinElmer) and EC50 values were determined using a four-parameter logistic equation over a 12-point dose response curve (GraphPad Prism). The signal to noise (S/N) was determined by taking the ratio of the highest RLU on the dose response curve to the RLU in the untreated wells. […]

Setting [4] is: HEK293/hGLP1R cells, Table 4, read-out: cAMP EC50.
[5] abbreviates: HEK293/CRE-Luc cells without hGLP1R, payloads and linker-payloads.
[6] abbreviates: HEK293/CRE-Luc cells without hGLP1R, payloads and linker-payloads, read-out: EC50.

Like-named read-outs stand apart in the source and are kept apart here. Where a SMILES comes first, the peptide text is derived from it. [ ]: non-standard residue; d: D form. The star is where a group is joined. Bip(2'-Et,4'-O(CH2)4NH2) = CCc1cc(OCCCCN)ccc1-c1ccc(C[C@H](N)C(=O)O)cc1; Malonyl(2,2-Me2,histaminyl) = CC(C)(C(=O)NCCc1cnc[nH]1)C(=O)*; Nva(5-(3,5-Me2Ph)) = Cc1cc(C)cc(CCC[C@H](N)C(=O)O)c1; Ala(1H-tetrazol-5-yl) = N[C@@H](Cc1nnn[nH]1)C(=O)O; αMePhe(2-F) = C[C@](N)(Cc1ccccc1F)C(=O)O

In the case of `CCc1cc(OCCCCn2cc(COCCOCCOCCOCCOCCOCCOCCOCCN)nn2)ccc1-c1ccc(C[C@H](NC(=O)[C@H](CC(=O)O)NC(=O)[C@H](CO)NC(=O)[C@@H](NC(=O)C(C)(Cc2ccccc2F)NC(=O)[C@@H](NC(=O)CNC(=O)[C@H](Cc2nn[nH]n2)NC(=O)C(C)(C)C(=O)NCCc2cnc[nH]2)[C@@H](C)O)[C@@H](C)O)C(=O)N[C@@H](CCCc2cc(C)cc(C)c2)C(N)=O)cc1` (stereo partly shown) [LP11, NH2-PEG8-triazole-P8], at human GLP1R [1], the EC50 turned out to be 0.0161 nM, the “HEK293/CRE-LUC/hGLP1R Relative Potency (% P8 EC50)” value is 33.1%, the “HEK293/CRE-LUC/hGLP1R Relative Signal:Noise (% P8)” value is on record as 113.3% and the “HEK293/CRE-LUC/hGLP1R S/N” value is given as 74.5. Further, the EC50 on human GLP1R [2] (setting [4]) stood at 0.318 nM. Moreover, the EC50 at human GLP1R [2] (Table 5C, read-out: c-AMP EC50) worked out at 0.318 nM.
With `CCc1cc(OCCCCN)ccc1-c1ccc(C[C@H](NC(=O)[C@H](CC(=O)O)NC(=O)[C@H](CO)NC(=O)[C@@H](NC(=O)[C@](C)(Cc2ccccc2F)NC(=O)[C@@H](NC(=O)CNC(=O)[C@H](Cc2nn[nH]n2)NC(=O)C(C)(C)C(=O)NCCc2cnc[nH]2)[C@@H](C)O)[C@@H](C)O)C(=O)N[C@@H](CCCc2cc(C)cc(C)c2)C(N)=O)cc1` [P9, (8S,14S,17S,20S,23S,26S)-8-((2H-tetrazol-5-yl)methyl)-26-(((S)-1-(((S)-1-amino-5-(3,5-dimethylphenyl)-1-oxopentan-2-yl)amino)-3-(4′-(4-aminobutoxy)-2′-ethyl-[1,1′-biphenyl]-4-yl)-1-oxopropan-2-yl)carbamoyl)-17-(2-fluorobenzyl)-14,20-bis((R)-1-hydroxyethyl)-23-(hydroxymethyl)-1-(1H-imidazol-5-yl)-5,5,17-trimethyl-4,6,9,12,15,18,21,24-octaoxo-3,7,10,13,16,19,22,25-octaazaoctacosan-28-oic acid] ({Malonyl(2,2-Me2,histaminyl)}-[Ala(1H-tetrazol-5-yl)]GT[αMePhe(2-F)]TSD[Bip(2'-Et,4'-O(CH2)4NH2)][Nva(5-(3,5-Me2Ph))]-NH2), on human GLP1R [1], the EC50 was found to be 0.00397 nM, the “HEK293/CRE-LUC/hGLP1R Relative Potency (% P8 EC50)” value amounted to 133.8% and the “HEK293/CRE-LUC/hGLP1R S/N” value is 75.2. Besides, the S/N in the test with HEK293/CRE-Luc cells (setting [5]) amounted to 1.3. Also, in the test on HEK293/CRE-Luc cells (setting [6]), the EC50 is over 200 nM. Further, the EC50 at human GLP1R [2] (setting [4]) worked out at 0.05 nM.
In the case of `CCc1cc(OCCCCn2cc(COCCOCCOCCOCCOCCOCCOCCOCCN)nn2)ccc1-c1ccc(C[C@H](NC(=O)[C@H](CC(=O)O)NC(=O)[C@H](CO)NC(=O)[C@@H](NC(=O)[C@](C)(Cc2ccccc2F)NC(=O)[C@@H](NC(=O)CNC(=O)[C@H](Cc2nn[nH]n2)NC(=O)C(C)(C)C(=O)NCCc2cnc[nH]2)[C@@H](C)O)[C@@H](C)O)C(=O)N[C@@H](CCCc2cc(C)cc(C)c2)C(N)=O)cc1` [M3190], the EC50 was over 200 nM in test [3]; over 20 nM in the test on HEK293/CRE-Luc cells (HEK293/CRE-Luc cells without hGLP1R, ATDCs and references (Table 27), read-out: EC50); over 200 nM in the test with HEK293/CRE-Luc cells (setting [6]); over 200 nM with HEK293/CRE-Luc cells (Table 28, reporter cells without GLP1R, read-out: HEK293/CRE-Luc EC50); over 30 nM with HEK293/CRE-Luc cells (Table 29, reporter cells without GLP1R, read-out: HEK293/CRE-Luc EC50). Besides, the S/N in the test with HEK293/CRE-Luc cells (HEK293/CRE-Luc cells without hGLP1R, ATDCs and references (Table 27)) was found to be 1.3; with HEK293/CRE-Luc cells (setting [5]), 1.3.
